Experiments:
[1] = reduction by ascorbic acid (AsA) followed by 1H-/195Pt-NMR; type: physicochemical; details: 20 mM, 8 equiv. AsA, 5:1 d6-DMSO:D2O, 37 °C, dark
Protocol: Reduction of I and II. Samples were prepared by reacting I or II (20 mM) with 8 equiv. AsA in 5:1 d6-DMSO:D2O solutions. The time course of the reaction was monitored by ^1H-NMR and ^195Pt-NMR after incubation of the samples were incubated at 37 °C for 0, 3, 6, 12, 24, 36, 48, 60, 72, 84, 96, or 120 h in the dark.

[2] = tested on: nuclear DNA of PANC-1 cells; test: platination of cellular DNA by ICP-MS; type: cell-based, human; details: 6 h
Protocol: DNA platination. Cancer cells were seeded in 6-well plates at a density of 5×10^5 cells per well. After incubation at 37 °C for 24 h, the cells were treated with each complex for 6 h. The attached cells were harvested with trypsin and washed twice with PBS (4 °C). The cell pellets were lysed with the TIANamp Genomic DNA Kit. The DNA concentration was determined using NanoDrop spectrophotometer, and then the isolated DNA was digested with the same method mentioned above. The final Pt content was determined by ICP-MS.

PANC-1 cells [3] = test: 72 h MTT cytotoxicity, PANC-1; type: cell-based, human
Protocol: Cytotoxicity. Tumor cells were cultured overnight after inoculation in RPMI-1640 medium or DMEM supplemented with 10% FBS. All cultures were maintained in an incubator in a highly humidified atmosphere of 95% air with 5% CO2 at 37 °C. Growth inhibition was measured with an MTT assay. Briefly, 2800–7000 cells per well in culture medium (100 μL) were plated in 96-well plates (Corning). The cells were treated in triplicate with different concentrations of complexes at 37 ℃ for 72 h. Stock solutions of CDDP and oxoplatin were prepared in PBS, while stock solutions of conjugates I and II and the ligand MSA-2 were prepared in DMSO. The stock solutions were diluted in complete medium (DMSO < 0.5%). An aliquot of MTT solution (40 μL, 2.5 mg·mL^–1) in PBS buffer was added to each well and incubated for 4 h. The supernatant was removed and DMSO (150 μL) was added to solubilize the formazan crystals. The amount of formazan was determined using a microplate reader at 570 nm after the plates were shaken for 30 min. The optical density (OD) was used to calculate the percentage of viable cells relative to untreated control values. Background readings for MTT incubated in cell-free medium were subtracted from each value before calculation. […] The mean IC50 values were calculated using data from three replicates.

PANC-1 cells [4] = test: cellular uptake of Pt by ICP-MS, PANC-1; type: cell-based, human
Protocol: Cellular uptake. All incubations were carried out in the dark. After the designated incubation period, the medium was removed, and the cells were harvested with trypsin and rinsed twice with PBS (1×, 20 mM, pH 7.4), followed by digestion and ICP-MS.
Cancer cells were seeded in a 6-well plate at a density of 5×10^5 cells per well. After incubation for 24 h, the cells were treated with each complex for 6 h.
Cancer cells preincubated with metabolic inhibitor (MIs) were also evaluated. These cells were preincubated with 2-deoxy-D-glucose and oligomycin (50 mM and 5 μM, respectively, 1 h) or NH4Cl (50 mM, 1 h) at 37 ℃ followed by incubation with DMEM containing CDDP, I or II at 37 ℃ for 6 h.
Digestion. Cell pellets were collected by centrifugation and then digested with nitric acid (100 µL) for 2 h at 95 °C, followed by the addition of H2O2 (50 µL) at 95 °C for 0.5 h. HCl (100 µL) was added and kept at 95 °C until the total volume was less than 20 μL. Water was then added to dilute the solution to 1 mL, and the final Pt content was determined by ICP-MS.

STING pathway in BMDCs = test: IFN-β and IL-6 ELISA in supernatants of BMDCs treated with complexes; type: cell-based, mouse
Protocol: (§1) ELISA. Bone marrow-derived dendritic cells (BMDCs) were prepared according to the following method. Briefly, femurs and tibias were removed from 4-6 week-old C57BL/6 mice, and the bone marrow cells were isolated. The bone marrow cells were incubated in T cell medium [RPMI-1640 medium (with GlutaMAX), supplemented with 10% FBS, 1% HEPES, 1% NEAA, 1% sodium pyruvate, and 0.1% βME] containing 20 ng/mL GM-CSF for 6 days after erythrocyte lysis, during which time half of the medium was replaced with fresh T cell medium once and the cytokines were supplemented. Then, the BMDCs were harvested on day 7 for further study.
(§2) BMDCs were cultured with 50% CM plus 50% fresh medium for 18 h. In addition, BMDCs were cultured with fresh medium containing different complexes or mixtures (15 μM CDDP and I, a mixture of I and 8 equiv. AsA, and equal AsA). Then, all the BMDC supernatant was collected and centrifuged for subsequent cytokine analysis using ELISA kits, which were performed according to the manufacturer’s instructions.

[5] = tested on: BMDCs cultured with Pan02 cell CM; test: IFN-β ELISA of BMDCs incubated with conditioned medium of drug-treated Pan02 cells; type: cell-based, mouse
Protocol: as §1
Pan02 tumor cells were treated with various drugs at a concentration of 5 μM for 48 h, and then the drug-pretreated tumor cell supernatant was obtained by centrifugation at a speed of 12000 rpm/min for 5 min and used as conditioned media (CM) subsequently.
as §2

[6] = tested on: Pan02 tumor tissue immune cells; test: flow cytometric analysis of immune cells in Pan02 tumor tissue; type: in vivo, mouse; details: Pan02 tumors; comparable to CDDP and CDDP + MSA-2 groups
Protocol: Flow cytometric analysis. To analyze the levels of immune cells in the tumor microenvironment, mice were sacrificed six days after the final treatment. The obtained tumors were cut into pieces and digested in T cell medium. Single-cell suspensions were obtained after filtration through nylon mesh and incubated with various antibodies. FACS tests were carried out on a flow cytometer, and the results were analyzed with NovaExpress. The following monoclonal antibodies (mAbs) were used for flow cytometry: anti-CD3-APC (17A2), anti-CD4-AF700 (RM4-5), anti-CD8-PE (53-6.7), anti-NK1.1-PE/Cy7 (PK136), anti-PD-1-FITC (29F. 1A12), anti-CD69-PE/Cy5 (H1.2F3).

[7] = pretreated with 8 equiv. AsA for 24 h, compared with no pretreatment

Compound: COc1cc2cc(C(=O)CCC(=O)[O][Pt]([NH2])([NH2])([OH])([Cl])[Cl])sc2cc1OC [conjugate I]
- time at which reduction by AsA finished [1]: 24 h
- platination of cellular DNA [2]: stronger than that by CDDP or conjugate II
- IC50 (PANC-1 cells [3]): 0.06 ± 0.02 µM
- cellular Pt levels after preincubation with metabolic inhibitors (MIs) (PANC-1 cells [4]; PANC-1, 5 μM, 6 h, 50 mM 2-deoxy-D-glucose and 5 μM oligomycin, versus no MI pretreatment): significantly decreased
- intracellular Pt levels after pretreatment with endocytosis inhibitor NH4Cl (PANC-1 cells [4]; PANC-1, 5 μM, 6 h, 50 mM NH4Cl): did not significantly change
- fold increase of cellular Pt compared with CDDP (PANC-1 cells [4]; PANC-1 cells, 6 h): 92 fold
- fold increase of cellular Pt compared with conjugate II (PANC-1 cells [4]; PANC-1 cells, 6 h): 68 fold
- cellular Pt content (PANC-1 cells [4]; PANC-1 cells, 6 h incubation, ICP-MS): 155.7 ng Pt/mg protein
- IFN-β secretion by BMDCs (STING pathway in BMDCs; 18 h, ELISA, 15 μM): minimal
- IL-6 secretion by BMDCs (STING pathway in BMDCs; 18 h, ELISA, 15 μM): minimal
- IFN-β secretion by BMDCs, compound pretreated with AsA (STING pathway in BMDCs; [7]): significantly enhanced
- IL-6 secretion by BMDCs, compound pretreated with AsA (STING pathway in BMDCs; [7]): significantly enhanced
- IFN-β secretion by BMDCs pretreated with MyD88 inhibitor, treated Pan02 cell CM ([5]; MyD88 inhibitor TJ-M2010-5): significant decrease
- IFN-β secretion by BMDCs incubated with treated Pan02 cell CM ([5]; Pan02 treated 48 h at 5 μM (Pt-E-I 20 μM), BMDCs 50% CM, 18 h): markedly increased
- infiltration of CD8+ and CD4+ T cells [6]: slightly increased
